# Assay results taken from ChEMBL document CHEMBL5360655, “Design, Synthesis, and Biological Evaluation of Novel P2X7 Receptor Antagonists for the Treatment of Septic Acute Kidney Injury” (J Med Chem, 2023).
# Active and inactive are the calls of the source. No cut-off for these calls is given here.
# Experiments:
# [1] = Toxicity in C57BL/6J mouse assessed as pathological changes in kidney at 20 mg/kg, ip administered twice at 0 hrs and 8 hrs and measured after 16 hrs by Hematoxylin-Eosin staining based analysis; type: organism-based; conditions: in vivo
# [2] = Cmax in BALB/c mouse at 10 mg/kg, iv measured for 24 hrs by LC-MS/MS analysis; type: ADME, organism-based; design: time 24 hrs, dose 10 mg/kg, route iv; conditions: in vivo
# THP-1 = assay: Effect on P2X7 receptor expression in human THP-1 cells at 0.1 to […] pretreated with LPS for 3 hrs followed by incubation with compound for 40 mins followed by treatment with ATP for 1 hr by western blot analysis; type: functional, cell-based; conditions: dose 0.1-2.5 µM, time 100.0 min
# Mus musculus [3] = assay: (§1) Reno-protective activity against CLP-induced acute kidney injury C57BL/6J mouse model assessed as decrease in Nlrp3 gene expression in kidney at 20 mg/kg, ip administered twice at 30 mins prior to CLP operation and 8 hrs post-CLP operation and measured at 16 hrs post-CLP operation by RNA sequencing analysis; type: functional, organism-based; conditions: time 16.5 hrs
# Mus musculus [4] = assay: as §1, with “NLRP3 mRNA” for “Nlrp3 gene”, “RT-qPCR” for “RNA sequencing”; type: functional, organism-based; conditions: time 16.5 hrs
# Mus musculus [5] = assay: as §1, with “cleaved IL-1 beta protein” for “Nlrp3 gene”, “western blot” for “RNA sequencing”; type: functional, organism-based; conditions: time 16.5 hrs
# [6] = target: T1, P2X purinoceptor 7 (Homo sapiens) (UniProt Q99572); assay: Antagonist activity at P2X7 receptor in human THP-1 cells assessed as inhibition of ATP-induced NLRP3 inflammasome activation at 0.1 to […] pretreated with LPS for 3 hrs followed by incubation with compound for 40 mins followed by treatment with ATP for 1 hr by western blot analysis; type: cell-based; conditions: filed as antagonist, dose 0.1-2.5 µM, time 100.0 min
# T1 sequence (whole entry): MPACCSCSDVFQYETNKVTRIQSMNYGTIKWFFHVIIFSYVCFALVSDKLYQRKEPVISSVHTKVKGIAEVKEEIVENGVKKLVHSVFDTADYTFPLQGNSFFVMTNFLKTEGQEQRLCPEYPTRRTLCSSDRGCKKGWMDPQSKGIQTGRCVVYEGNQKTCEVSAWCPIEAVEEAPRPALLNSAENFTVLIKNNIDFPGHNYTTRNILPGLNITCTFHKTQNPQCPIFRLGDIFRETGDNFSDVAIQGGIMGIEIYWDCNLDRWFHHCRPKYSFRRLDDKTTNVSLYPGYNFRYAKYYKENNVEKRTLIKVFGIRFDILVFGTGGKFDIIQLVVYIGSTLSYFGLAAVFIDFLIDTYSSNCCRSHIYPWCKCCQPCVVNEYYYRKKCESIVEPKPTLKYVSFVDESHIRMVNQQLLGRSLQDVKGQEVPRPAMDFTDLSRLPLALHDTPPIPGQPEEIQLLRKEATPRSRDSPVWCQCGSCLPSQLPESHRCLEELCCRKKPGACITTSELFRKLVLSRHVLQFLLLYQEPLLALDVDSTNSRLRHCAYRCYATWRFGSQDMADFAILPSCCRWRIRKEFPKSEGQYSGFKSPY
# [7] = target: T1, P2X purinoceptor 7 (Homo sapiens); assay: Antagonist activity at P2X7 receptor in human THP-1 cells assessed as inhibition of Bz-ATP-evoked channel current at 2 uM by whole-cell patch clamp analysis; type: cell-based; conditions: filed as antagonist
# P2X purinoceptor 7 = target: T2, P2X purinoceptor 7 (Homo sapiens, UniProt Q99572); assay: Antagonist activity at P2X7 receptor in human THP-1 cells assessed as inhibition of ATP-induced IL-1beta secretion pretreated with LPS for 3 hrs followed by incubation with compound for 40 mins followed by treatment with ATP for 1 hr by ELISA; type: cell-based
# T2 sequence (Q99572 whole entry): T1 sequence (whole entry)
# Cytochrome P450 1A2 = target: T3, Cytochrome P450 1A2 (Homo sapiens, UniProt P05177); assay: Inhibition of CYP1A2 in human liver microsomes using phenacetin as substrate upto 100 uM incubated for 10 mins in presence of NADPH by LC-MS/MS analysis; type: ADME, Microsome
# T3 sequence (P05177 whole entry): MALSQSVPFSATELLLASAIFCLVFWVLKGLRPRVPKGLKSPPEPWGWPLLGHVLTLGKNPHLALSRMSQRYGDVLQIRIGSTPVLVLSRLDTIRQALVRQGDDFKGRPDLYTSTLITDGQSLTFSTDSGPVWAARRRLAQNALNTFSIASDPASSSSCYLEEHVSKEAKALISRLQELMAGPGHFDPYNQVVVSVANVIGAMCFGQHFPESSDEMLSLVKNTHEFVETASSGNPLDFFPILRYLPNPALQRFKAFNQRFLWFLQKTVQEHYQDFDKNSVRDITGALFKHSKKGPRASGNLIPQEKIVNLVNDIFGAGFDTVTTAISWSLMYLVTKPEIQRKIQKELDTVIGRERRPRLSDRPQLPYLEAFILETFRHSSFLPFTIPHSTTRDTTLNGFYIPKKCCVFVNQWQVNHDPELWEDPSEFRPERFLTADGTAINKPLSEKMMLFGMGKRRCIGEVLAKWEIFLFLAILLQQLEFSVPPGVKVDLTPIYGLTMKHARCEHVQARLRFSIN
# Cytochrome P450 2E1 = Cytochrome P450 2E1 (Homo sapiens, UniProt P05181); assay: Inhibition of CYP2E1 in human liver microsomes using cholorzoxazone-as substrate upto 100 uM incubated for 10 mins in presence of NADPH by LC-MS/MS analysis; type: ADME, Microsome
# Chain of Cytochrome P450 2E1 (P05181 whole entry): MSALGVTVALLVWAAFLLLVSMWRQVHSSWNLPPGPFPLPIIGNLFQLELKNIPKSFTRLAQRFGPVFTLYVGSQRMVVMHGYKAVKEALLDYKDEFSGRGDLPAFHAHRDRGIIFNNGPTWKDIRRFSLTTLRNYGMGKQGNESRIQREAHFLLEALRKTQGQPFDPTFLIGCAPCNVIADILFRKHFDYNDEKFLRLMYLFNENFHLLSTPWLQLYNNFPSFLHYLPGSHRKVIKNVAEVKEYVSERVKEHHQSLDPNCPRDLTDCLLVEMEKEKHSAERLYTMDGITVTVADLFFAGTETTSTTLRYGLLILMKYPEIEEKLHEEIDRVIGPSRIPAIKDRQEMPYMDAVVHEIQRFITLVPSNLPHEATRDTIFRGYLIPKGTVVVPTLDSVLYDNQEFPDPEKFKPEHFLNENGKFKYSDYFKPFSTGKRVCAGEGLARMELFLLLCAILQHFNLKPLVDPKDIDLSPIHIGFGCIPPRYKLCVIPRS
# Mus musculus [8] = assay: as §1, with “Casp1” for “Nlrp3”; type: functional, organism-based; conditions: time 16.5 hrs
# Mus musculus [9] = assay: (§2) Reno-protective activity against CLP-induced acute kidney injury C57BL/6J mouse model assessed as decrease in KIM1 mRNA expression in kidney at 20 mg/kg, ip administered twice at 30 mins prior to CLP operation and 8 hrs post-CLP operation and measured at 16 hrs post-CLP operation by RT-qPCR analysis; type: functional, organism-based; conditions: time 16.5 hrs
# Mus musculus [10] = assay: as §1, with “Il17” for “Nlrp3”; type: functional, organism-based; conditions: time 16.5 hrs
# [11] = AUC(0 to t) in BALB/c mouse at 10 mg/kg, ip measured for 24 hrs by LC-MS/MS analysis; type: ADME, organism-based; design: dose 10 mg/kg, time 24 hrs, route ip; conditions: in vivo
# [12] = Tmax in BALB/c mouse at 10 mg/kg, po measured for 24 hrs by LC-MS/MS analysis; type: ADME, organism-based; conditions: in vivo
# Mus musculus [13] = assay: as §1, with “Il1b” for “Nlrp3”; type: functional, organism-based; conditions: time 16.5 hrs
# Mus musculus [14] = assay: as §2, with “IL-1 beta” for “KIM1”; type: functional, organism-based; conditions: time 16.5 hrs
# Mus musculus [15] = assay: as §2, with “cleaved caspase 1 (p20) protein” for “KIM1 mRNA”, “western blot” for “RT-qPCR”; type: functional, organism-based; conditions: time 16.5 hrs
# [16] = Toxicity in ip dosed C57BL/6J mouse assessed as maximum tolerated dose and measured for 14 days; type: organism-based; conditions: in vivo, time 14 day
compound,measurement,setting,value
CS(=O)(=O)c1ccc(-c2nc(C(=O)NCc3cn(-c4cc(Br)ccn4)nn3)cs2)cc1,Activity,[1],Non-Toxic
same,Cmax,[2],4730 ng/mL
same,Activity,THP-1,inactive
same,Activity,Mus musculus [3],Active
same,Activity,Mus musculus [4],Active
same,Activity,Mus musculus [5],Active
same,inhibition,[6],Active
same,inhibition,[7],56.1%
same,IC50,P2X purinoceptor 7,0.327 µM
same,inhibition (INH),Cytochrome P450 1A2,Not Active
same,inhibition (INH),Cytochrome P450 2E1,Not Active
same,Activity,Mus musculus [8],Active
same,Activity,Mus musculus [9],Active
same,Activity,Mus musculus [10],Active
same,AUC(0-t) at 24 h,[11],11900 ng·h/mL
same,Tmax,[12],1.17 h
same,Activity,Mus musculus [13],Active
same,Activity,Mus musculus [14],Active
same,Activity,Mus musculus [15],Active
same,MTD at 336 h,[16],400 mg/kg
